The test concerns the target T1, Alpha-amylase 1A (Homo sapiens) (UniProt P0DUB6).
T1 sequence (whole entry): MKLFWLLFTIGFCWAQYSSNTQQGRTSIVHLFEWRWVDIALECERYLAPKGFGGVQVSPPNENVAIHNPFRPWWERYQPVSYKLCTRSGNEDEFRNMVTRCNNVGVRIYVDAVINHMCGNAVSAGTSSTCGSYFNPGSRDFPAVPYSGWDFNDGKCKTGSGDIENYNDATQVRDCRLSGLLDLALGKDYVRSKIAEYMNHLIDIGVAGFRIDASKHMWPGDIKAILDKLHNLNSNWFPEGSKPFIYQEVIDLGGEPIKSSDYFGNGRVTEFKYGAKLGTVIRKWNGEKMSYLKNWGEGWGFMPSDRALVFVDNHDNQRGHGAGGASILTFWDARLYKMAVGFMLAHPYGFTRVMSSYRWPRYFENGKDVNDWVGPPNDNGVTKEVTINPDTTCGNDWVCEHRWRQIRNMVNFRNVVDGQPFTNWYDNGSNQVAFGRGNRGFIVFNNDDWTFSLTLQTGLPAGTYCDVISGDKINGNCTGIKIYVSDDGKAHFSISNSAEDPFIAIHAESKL
The test can be described thus: Activity of human salivary alpha amylase by FRET assay.

The structures appear in SMILES notation. Calls of active or inactive are those of the source. The rule behind the calls is not given here.

As to `CN(C)c1cccc2c(S(=O)(=O)NCCSCCCCCS[C@@H]3O[C@H](CO)[C@@H](O[C@H]4O[C@H](COCc5ccc6ccccc6c5)[C@@H](O)[C@H](O)[C@H]4O)[C@H](O)[C@H]3O)cccc12`, the result was inactive.

In the case of `CN(C)c1cccc2c(S(=O)(=O)NCCSCCCCCS[C@@H]3O[C@H](CO)[C@@H](O[C@H]4O[C@H](CO)[C@@H](O[C@H]5O[C@H](CO)[C@@H](O[C@H]6O[C@H](CO)[C@@H](O[C@H]7O[C@H](CO)[C@@H](O[C@H]8O[C@H](COCc9ccc%10ccccc%10c9)[C@@H](O)[C@H](O)[C@H]8O)[C@H](O)[C@H]7O)[C@H](O)[C@H]6O)[C@H](O)[C@H]5O)[C@H](O)[C@H]4O)[C@H](O)[C@H]3O)cccc12`, the outcome was Active.

(Values after ChEMBL document CHEMBL1155403, “Simple and conveniently accessible bi-fluorescence-labeled substrates for amylases” (Bioorg Med Chem Lett, 2010).)
